Assay results: patent publication US20070203153A1, “Compositions and methods for treating thrombocytopenia” (Astellas Pharma Inc., priority 2005, published 2007)

Key:
[1] = system: Platelets of other species; assay: signaling responses in platelets of other species (anti-phospho-STAT5 immunoblot); format: cell-based; conditions: baboon, rhesus, cynomolgus, squirrel monkey, marmoset, beagle dog, guinea pig, rabbit, hamster, rat, mouse platelets
chimpanzee platelets = assay: activation of signaling pathways in platelets (anti-phospho-STAT5 immunoblot), chimpanzee; format: cell-based
[2] = system: human cord blood CD34+ cells; assay: megakaryocyte colony formation of human cord blood CD34+ cells; format: cell-based; conditions: read-out: induction of megakaryocyte colony formation, EC50
human platelets [3] = assay: platelet-increasing effect in human platelet-producing NOD/SCID mice; format: in vivo; conditions: for increase in the human platelet count: day 14
Description: Non-obese diabetic/severe combined immunodeficiency (NOD/SCID) mice were characterized as an efficient engraftment model for human hematopoietic stem cells, as this model results in the production of human platelets. In this way, we examined the in vivo platelet-increasing effect of FORMULA X in human platelet-producing NOD/SCID mice in which human hematopoietic stem cells were transplanted.
In this study, we used commercially available cryopreserved human fetal liver CD34+ cells as a source of human hematopoietic stem cells. The cells were transplanted into sublethally irradiated (240 cGy) NOD/SCID mice. Human platelets started to appear in peripheral blood of these mice 4 weeks after transplantation. The production of human platelets continued up to six months post-transplant. […]

Ba/F3 cell = Ba/F3 cell growth (c-Mpl dependence control); format: cell-based; conditions: Ba/F3 cells without c-Mpl
human platelets [4] = assay: activation of signaling pathways in platelets (anti-phospho-STAT5 immunoblot), human; format: cell-based
[5] = system: G-CSF-mobilized human peripheral blood CD34+ cells; assay: degree of polyploidy of G-CSF-mobilized human peripheral blood CD34+ cells after 12 days incubation; format: cell-based; conditions: compared with rhTPO-treated cells
[6] = system: G-CSF-mobilized human peripheral blood CD34+ cells; assay: differentiation of human CD34+ cells into megakaryocytes, serum-free liquid culture, flow cytometry; format: cell-based; conditions: day 14
Method: G-SCF-mobilized human peripheral blood CD34+ cells were cultured with a combination of FORMULA X and TPO, FORMULA X, or rhTPO in a serum-free liquid culture system. The numbers of CD34+CD41− cells (hematopoietic progenitor cells), CD34+CD41+ cells (megakaryocytic progenitor cells), and CD34−CD41+ cells (megakaryocytes) were measured using flow cytometry.
For purposes of this study, the number of megakaryocytes (CD34−CD41+ cells) depicted in FIG. 1 were counted using flow cytometry. The data represents the mean±SE of 5 independent experiments. *: p<0.05, ***p<0.001 compared with 3 nM TPO using Dunnett's test.
The number of hematopoietic progenitor cells ([…]) and megakaryocytic progenitor cells (CD34+CD41+ cells: b) depicted in FIGS. 2 and 3, respectively, were counted using flow cytometry, then compared with 3 nM TPO using Dunnett's test.
On the indicated days, the numbers of hematopoietic progenitor cells ([…]), megakaryocytic progenitor cells (CD34+CD41+ cells: b), and megakaryocytes (CD34−CD41+ cells: c) depicted in FIGS. 4, 5, and 6 were counted using flow cytometry on indicated days. The data represent the mean±SE of 5 independent experiments. *: p<0.05, **p<0.01, ***p<0.001 compared with 3 nM TPO using Dunnett's tests.

[7] = molecular target: T1, human receptor (c-Mpl)-expressing Ba/F3 cells (Homo sapiens, UniProt P40238); assay: proliferation of human c-Mpl-expressing Ba/F3 cells (c-Mpl-Ba/F3 cells); format: cell-based; conditions: read-out: proliferation in a c-Mpl-dependent manner, EC50
T1 construct: expressed in transfected cells; host or cells: Ba/F3 cells
T1 sequence (P40238 26-635): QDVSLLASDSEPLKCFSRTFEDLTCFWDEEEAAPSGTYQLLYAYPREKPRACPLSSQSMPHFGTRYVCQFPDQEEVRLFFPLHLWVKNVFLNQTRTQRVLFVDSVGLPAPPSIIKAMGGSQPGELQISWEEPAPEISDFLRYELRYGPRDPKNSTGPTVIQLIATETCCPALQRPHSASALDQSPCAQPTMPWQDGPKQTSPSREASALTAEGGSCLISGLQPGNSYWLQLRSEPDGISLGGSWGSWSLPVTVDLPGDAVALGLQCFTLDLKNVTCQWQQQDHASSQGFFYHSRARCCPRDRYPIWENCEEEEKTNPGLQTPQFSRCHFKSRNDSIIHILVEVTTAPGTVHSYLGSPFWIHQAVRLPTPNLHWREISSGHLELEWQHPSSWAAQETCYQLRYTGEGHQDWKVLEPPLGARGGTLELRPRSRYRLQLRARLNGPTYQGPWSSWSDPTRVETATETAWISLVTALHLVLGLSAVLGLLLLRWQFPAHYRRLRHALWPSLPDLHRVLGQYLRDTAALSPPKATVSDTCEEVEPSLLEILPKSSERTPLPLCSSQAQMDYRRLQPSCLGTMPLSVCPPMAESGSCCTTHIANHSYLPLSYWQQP
Description: Thrombopoietin (TPO) is a 332 amino acid cytokine that is the principal physiologic regulator of platelet production. Using a high-throughput growth assay based on the proliferation of human receptor (c-Mpl)-expressing Ba/F3 cells (c-Mpl-Ba/F3 cells), the screening of a library led to the identification of a novel series of c-Mpl agonists.

human c-Mpl = molecular target: T2, human c-Mpl (Homo sapiens, UniProt P40238); assay: effect on TPO binding to human c-Mpl using human platelets; conditions: concentrations up to 100 microM
T2 construct: endogenous in cells; host or cells: human platelets
T2 sequence (P40238 26-635): T1 sequence (P40238 26-635)

murine platelets = assay: murine platelet count in human platelet-producing NOD/SCID mice; format: in vivo; conditions: during the study period
Method: In this study, we used commercially available cryopreserved human fetal liver CD34+ cells as a source of human hematopoietic stem cells. The cells were transplanted into sublethally irradiated (240 cGy) NOD/SCID mice. Human platelets started to appear in peripheral blood of these mice 4 weeks after transplantation. The production of human platelets continued up to six months post-transplant. Various doses of FORMULA X (0, 0.3, and 3 mg/kg/day) were orally administered for 14 days to NOD/SCID mice that had been confirmed to produce human platelets stably.
The increase in the human platelet count reached about 2.7-fold at 1 mg/kg/day and about 3.0-fold at 3 mg/kg/day on day 14.

| Compound | signaling responses in platelets (anti-phospho-STAT5 immunoblot) [1] | activation of signaling pathways in platelets (chimpanzee platelets) | EC50 [2] [nM] | increase in the human platelet count (human platelets [3]; 1 mg/kg/day oral) | increase in the human platelet count (human platelets [3]; 3 mg/kg/day oral) | human platelet count after withdrawal of administration (human platelets [3]; after withdrawal) | number of human platelets (human platelets [3]; oral administration for 14 days, significance at 1 mg/kg/day and above) | effect on Ba/F3 cell growth (Ba/F3 cell) | activation of signaling pathways in platelets (human platelets [4]) | ploidy level of cells [5] | number of megakaryocytes (CD34-CD41+ cells) ([6]; agent alone (FIG. 1)) | number of megakaryocytes (CD34-CD41+ cells) ([6]; in the presence of 3 nM TPO (FIG. 1)) | EC50 [7] [nM] | influence on rhTPO binding to human c-Mpl (human c-Mpl) | number of murine platelets (murine platelets) |
| --- | --- | --- | --- | --- | --- | --- | --- | --- | --- | --- | --- | --- | --- | --- | --- |
| O=C(Nc1nc(-c2cc(Cl)cs2)c(N2CCN(C3CCCCC3)CC2)s1)c1cnc(N2CCC(C(=O)O)CC2)c(Cl)c1 [FORMULA X] | no signaling responses | occurred only in human and chimpanzee platelets | 25 | about 2.7 fold | about 3.0 fold | return to the pretreatment level | dose-dependently increased | no effect | occurred only in human and chimpanzee platelets | not different from that of cells treated with rhTPO | increased the number of megakaryocytes in a dose-dependent fashion | dose-dependently increased | 3.3 | did not influence | did not change |
| TPO: 332 amino acid cytokine that is the principal physiologic regulator of platelet production | showed signaling responses | – | – | – | – | – | – | – | – | – | increased the number of megakaryocytes in a dose-dependent fashion | – | – | – | – |
